Values joined by “and” are separate entries in the source; they are usually repeats but may differ in a detail not shown here. Identical values can stand only once. Like-named read-outs stand apart in the source and are kept apart here.
How the values were obtained:
[1] = system: human liver cancer cell SMMC-7721; assay: Nude mice xenograft model inoculated with SMMC-7721 cells, tumor growth inhibition; format: in vivo; conditions: 30 mg/kg intragastric every day for 2 weeks; for relative tumor increment rate T/C %: effective if T/C ≦40% and p<0.05
Method: The establishment of tumor-bearing nude mice xenograft model: SMMC-7721 cells in logarithmic growth period were cultured. After cell number was counted, the cells were suspended in 1×PBS, and the concentration of the cell suspension was adjusted to 1.5×10^7/ml. The tumor cells were inoculated (s.c.) 3×10^6/0.2 ml/mice under the right armpit of nude mice. 45 nude mice were inoculated in total. When the tumor size reached 30-130 mm^3, 34 mice were randomly divided into different groups. […] Administration of testing drugs was started. […] Observation continued upon the withdraw till the tumor volume was larger than 2000 mm^3. The weight of animals and tumor size were tested twice a week during the experiment. […] The formula for calculating the tumor volume (TV) is: TV=a×b^2/2, wherein a and b independently and respectively represent the length and the breadth of the tumor. The formula for calculating the relative tumor volume (RTV) is: RTV=Vt/V0, wherein V0 is the tumor volume at the beginning of the administration, and Vt is […] when measured. The index for evaluating the antitumor activity is relative tumor increment rate T/C (%), and the calculation formula is: T/C (%)=(TRTV/CRTV)×100%, wherein, TRTV is the RTV for the treatment group, and CRTV is the RTV for the negative control group. Evaluation standard for efficacy: it is effective if the relative tumor increment rate T/C (%) is ≦40% and p<0.05 by statistics analysis.

[2] = Pharmacokinetic evaluation of CM4306, CM4308 and CM4309 in rats (mixed solution, intragastric); format: in vivo, SD rats; conditions: 4 mg/kg intragastric, mixed solution in PEG400, plasma; for MRT inf: read-out: MRT(0-∞)
Method: Blood samples were collected at 0.25, 0.5, 1.0, 2.0, 3.0, 5.0, 7.0, 9.0, 24, 36, 48 and 72 h after the administration.

[3] = target: c-Kit protein tyrosine kinase (Homo sapiens, UniProt P10721); assay: ELISA inhibition of c-Kit protein tyrosine kinase at the molecular level; format: biochemical; conditions: for results (inhibition efficacy): c-Kit and PDGFR-β, efficacy if inhibition rate at 10^-5 mol/L greater than 50%
Chain of c-Kit protein tyrosine kinase (P10721 26-976): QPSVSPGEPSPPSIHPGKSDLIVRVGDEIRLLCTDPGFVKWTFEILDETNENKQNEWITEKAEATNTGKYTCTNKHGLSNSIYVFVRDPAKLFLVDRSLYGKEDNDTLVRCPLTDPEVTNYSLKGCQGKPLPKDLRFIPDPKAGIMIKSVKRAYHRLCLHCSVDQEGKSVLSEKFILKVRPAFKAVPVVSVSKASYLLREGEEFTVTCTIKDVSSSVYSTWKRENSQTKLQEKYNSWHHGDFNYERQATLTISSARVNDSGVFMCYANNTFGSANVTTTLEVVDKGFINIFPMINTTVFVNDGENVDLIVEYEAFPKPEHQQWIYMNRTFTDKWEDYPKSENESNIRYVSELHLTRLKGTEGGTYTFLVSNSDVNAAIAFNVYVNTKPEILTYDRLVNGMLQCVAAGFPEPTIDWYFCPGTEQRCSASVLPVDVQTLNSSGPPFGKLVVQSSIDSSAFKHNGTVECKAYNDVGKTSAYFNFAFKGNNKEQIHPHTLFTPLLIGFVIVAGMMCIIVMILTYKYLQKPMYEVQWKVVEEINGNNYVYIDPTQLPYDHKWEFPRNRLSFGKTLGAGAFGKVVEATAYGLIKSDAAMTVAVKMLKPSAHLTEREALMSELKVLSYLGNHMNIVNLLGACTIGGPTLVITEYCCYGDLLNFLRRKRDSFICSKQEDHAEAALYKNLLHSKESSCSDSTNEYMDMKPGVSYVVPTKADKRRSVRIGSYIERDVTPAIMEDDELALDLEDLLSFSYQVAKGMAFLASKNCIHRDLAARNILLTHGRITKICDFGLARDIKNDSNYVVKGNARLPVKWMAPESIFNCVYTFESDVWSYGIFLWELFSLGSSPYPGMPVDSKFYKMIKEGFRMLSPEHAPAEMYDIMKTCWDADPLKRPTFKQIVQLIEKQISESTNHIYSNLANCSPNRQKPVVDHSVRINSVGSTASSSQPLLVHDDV
Method: (§1) The activity of diphenylurea compounds for inhibiting c-Kit, PDGFR-β protein tyrosine kinases on molecular level was tested by Enzyme-Linked Immunosorbent Assay (ELISA).
(§2) Reacting substrate Poly(Glu,Tyr)4:1 was bought from Sigma; Monoclonal antibody against tyrosine phosphate PY99 was bought from Santa Cruz; Horseradish peroxidase labeled sheep-against-rat IgG was bought from Calbiochem; ATP, DTT, OPD were bought from Amresco; microplates were bought from Corning; Su11248 was bought from Merk.
(§3) See Roskoski, R., Jr. Sunitinib: a VEGF and PDGF receptor protein kinase and angiogenesis inhibitor. Biochem Biophys Res Commun, 356: 323-328, 2007. The details comprise:
Kinase reaction substrate Poly(Glu,Tyr)4:1 was diluted to 20 μg/ml by potassium-free PBS, and the microplates were coated. Diphenylurea samples to be tested were added in the wells of the coated microplates (the samples to be tested were made from the stock solution of 10^−2 M in DMSO, and diluted to the desired concentration with reaction buffer before use. The resulted solution was added into the wells to get the final concentration of 10^−5 mol/L in 100 μL reaction system). At the same time, the positive control compound Su11248 was added to the positive control wells.
ATP solution diluted with reaction buffer (the final concentration of ATP is 5 μM) and tyrosine kinase for testing diluted with reaction buffer were added in turn. The total volume of reaction system was 100 μL. At the same time, the negative control wells and the control wells without enzyme were set up.
The reaction system was placed in a wet box and shaked for 1 h at 37° C. by shaking shielding from light. After the reaction was completed, plates were washed three times with T-PBS. Antibody PY99 was added (100 μL/well), and plates were shaked for 30 min at 37° C. After the reaction was completed, the plates were washed with three times T-PBS. Horseradish peroxidase labeled sheep-against-rat IgG was added (100 μL/well), and the plates were shaked for 30 min at 37° C. After the reaction was completed, the plates were washed with T-PBS for three times. OPD developing liquid was added (100 μL/well), and reacted for 1-10 min at room temperature shielding from light. 50 μL of 2 M H2SO4 was added to quench the reaction. A492 value was determined using wavelength-adjustable microplates reader VERSAmax.
(§4) The inhibition ratio of samples can be calculated by the following formula: […]

[4] = target: PDGFR-β protein tyrosine kinase (Homo sapiens, UniProt P09619); assay: ELISA inhibition of PDGFR-β protein tyrosine kinase at the molecular level; format: biochemical; conditions: 10 μM compound, ATP 5 μM, mean of duplicate experiments
Chain of PDGFR-β protein tyrosine kinase (P09619 33-1106): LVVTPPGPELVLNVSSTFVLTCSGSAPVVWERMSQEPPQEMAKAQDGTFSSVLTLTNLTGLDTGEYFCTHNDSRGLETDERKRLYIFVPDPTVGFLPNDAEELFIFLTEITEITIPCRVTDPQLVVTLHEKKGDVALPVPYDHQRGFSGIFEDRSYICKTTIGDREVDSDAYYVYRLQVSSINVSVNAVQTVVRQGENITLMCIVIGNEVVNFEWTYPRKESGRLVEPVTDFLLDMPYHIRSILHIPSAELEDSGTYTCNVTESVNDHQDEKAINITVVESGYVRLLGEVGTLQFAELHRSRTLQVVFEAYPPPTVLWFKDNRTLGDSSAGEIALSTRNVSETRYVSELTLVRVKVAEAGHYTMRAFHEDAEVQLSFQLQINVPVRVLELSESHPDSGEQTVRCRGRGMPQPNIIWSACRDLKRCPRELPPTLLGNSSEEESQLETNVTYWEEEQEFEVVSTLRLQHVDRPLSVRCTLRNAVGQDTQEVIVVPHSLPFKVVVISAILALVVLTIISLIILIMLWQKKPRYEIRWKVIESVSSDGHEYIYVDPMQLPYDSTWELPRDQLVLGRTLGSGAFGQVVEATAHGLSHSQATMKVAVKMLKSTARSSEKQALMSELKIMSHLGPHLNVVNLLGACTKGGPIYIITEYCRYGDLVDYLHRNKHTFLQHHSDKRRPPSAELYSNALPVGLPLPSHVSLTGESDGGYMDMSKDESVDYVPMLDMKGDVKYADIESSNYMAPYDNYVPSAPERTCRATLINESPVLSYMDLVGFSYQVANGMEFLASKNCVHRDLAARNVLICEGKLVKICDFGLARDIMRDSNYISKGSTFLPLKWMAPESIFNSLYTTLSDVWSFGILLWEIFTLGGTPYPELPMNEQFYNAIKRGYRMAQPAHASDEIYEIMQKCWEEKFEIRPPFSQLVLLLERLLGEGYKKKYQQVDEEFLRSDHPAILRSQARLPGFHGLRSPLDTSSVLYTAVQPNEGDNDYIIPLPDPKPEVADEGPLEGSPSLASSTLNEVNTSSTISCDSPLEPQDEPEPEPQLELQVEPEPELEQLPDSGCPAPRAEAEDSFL
Method: as §1, §2, §3
Kinase reaction substrate Poly(Glu,Tyr)4:1 was diluted to 20 μg/ml by potassium-free PBS, and the microplates were coated. […]
The reaction system was placed in a wet box and shaked for 1 h at 37° C. by shaking shielding from light. […] A492 value was determined using wavelength-adjustable microplates reader VERSAmax.
as §4

[5] = male, SD, rat, plasma, po, 4 mg/kg, individual rat
[6] = male, SD, rat, plasma, po, 4 mg/kg, mean value of 3 rats
[7] = male, SD, rat, plasma, po, 4 mg/kg, mean value of 3 rats, read-out: Cmax
[8] = male, SD, rat, plasma, po, 4 mg/kg, mean value of 3 rats, read-out: Tmax

Question: For [2H]C([2H])([2H])NC(=O)c1cc(Oc2ccc(NC(=O)Nc3ccc(Cl)c(C(F)(F)F)c3)c(F)c2)ccn1 [CM4309, 4-(4-(3-(4-chloro-3-(trifluoromethyl)phenyl]ureido)-3-fluorophenoxy)-N-(methyl-d3)picolinamide], which “relative tumor increment rate T/C %” value [1] is on record?
Answer: Its value is 27.0% and < 40%.

Question: And the “effect on tumor growth (tumor volume vs control group)” value ([1]; p<0.01 vs control group)?
Answer: The value was “significant effect in inhibiting tumor growth”.

Question: And the “AUC(0-t)” value ([2]; individual rat, 4 mg/kg)?
Answer: Its value is 22220 ng·h/mL and 35592 ng·h/mL and 25601 ng·h/mL.

Question: What about the “AUC(0-∞)” value ([2]; individual rat, 4 mg/kg) of the same molecule?
Answer: Its value is 41702 ng·h/mL and 28899 ng·h/mL.

Question: What about the Cmax ([2]; individual rat, 4 mg/kg) of the same molecule?
Answer: Its Cmax is 933 ng/mL and 530 ng/mL.

Question: What about the “MRT(0-∞)” value ([2]; individual rat, 4 mg/kg) of the same molecule?
Answer: Its value is 39.1 h and 36.7 h.

Question: What about the T1/2 ([2]; individual rat, 4 mg/kg) of the same molecule?
Answer: Its T1/2 is 23.4 h and 20.9 h.

Question: What about the Tmax ([2]; individual rat, 4 mg/kg) of the same molecule?
Answer: Its Tmax is 24.0 h and 1.0 h and 8.0 h.

Question: And the AUC(0-inf) [2, 5]?
Answer: The AUC(0-inf) was 27400 ng·h/mL.

Question: What about the half-life [2, 5] of the same molecule?
Answer: Its half-life is 26.7 h.

Question: What about the Cmax ([2]; male, SD, rat, plasma, po, 4 mg/kg, individual rat, read-out: Cmax) of the same molecule?
Answer: The Cmax was 470 ng/mL.

Question: And the MRT inf [2, 5]?
Answer: The MRT inf was 45.9 h.

Question: And the AUC(0-inf) [2, 6]?
Answer: The AUC(0-inf) was 32700 ng·h/mL.

Question: And the half-life [2, 6]?
Answer: The half-life was 23.7 h.

Question: And the Cmax [2, 7]?
Answer: Its Cmax is 644 ng/mL.

Question: What about the MRT inf [2, 6] of the same molecule?
Answer: Its MRT inf is 40.6 h.

Question: What about the Tmax [2, 8] of the same molecule?
Answer: The Tmax was 11 h.

Question: And the “AUC(0-t)” value ([2]; mean value of 3 rats)?
Answer: Its value is 27804 ng·h/mL.

Question: What about the “results (inhibition efficacy)” value [3] of the same molecule?
Answer: The value was “effective”.

Question: With CNC(=O)c1cc(Oc2ccc(NC(=O)Nc3ccc(Cl)c(C(F)(F)F)c3)c(F)c2)ccn1 [CM4308, 4-(4-(3-(4-chloro-3-(trifluoromethyl)phenyl]ureido)-3-fluorophenoxy)-N-methylpicolinamide] as the molecule, how does the “relative tumor increment rate T/C %” value [1] read?
Answer: Its value is 51.6%.

Question: And the “AUC(0-t)” value ([2]; individual rat, 4 mg/kg)?
Answer: Its value is 11473 ng·h/mL and 9327 ng·h/mL and 18558 ng·h/mL.

Question: What about the “AUC(0-∞)” value ([2]; individual rat, 4 mg/kg) of the same molecule?
Answer: The value was 9541 ng·h/mL and 18973 ng·h/mL.

Question: What about the Cmax ([2]; individual rat, 4 mg/kg) of the same molecule?
Answer: Its Cmax is 378 ng/mL and 279 ng/mL and 817 ng/mL.

Question: What about the “MRT(0-∞)” value ([2]; individual rat, 4 mg/kg) of the same molecule?
Answer: The value was 24.1 h and 21.7 h.

Question: And the T1/2 ([2]; individual rat, 4 mg/kg)?
Answer: The T1/2 was 11.7 h and 11.4 h.

Question: What about the Tmax ([2]; individual rat, 4 mg/kg) of the same molecule?
Answer: Its Tmax is 8.0 h and 6.0 h and 1.0 h.

Question: And the AUC(0-inf) [2, 5]?
Answer: Its AUC(0-inf) is 11600 ng·h/mL.

Question: What about the half-life [2, 5] of the same molecule?
Answer: Its half-life is 10.1 h.

Question: What about the MRT inf [2, 5] of the same molecule?
Answer: Its MRT inf is 21 h.

Question: What about the AUC(0-inf) [2, 6] of the same molecule?
Answer: The AUC(0-inf) was 13400 ng·h/mL.

Question: And the half-life [2, 6]?
Answer: Its half-life is 11.1 h.

Question: And the Cmax [2, 7]?
Answer: Its Cmax is 491 ng/mL.

Question: What about the MRT inf [2, 6] of the same molecule?
Answer: The MRT inf was 22.2 h.

Question: And the Tmax [2, 8]?
Answer: Its Tmax is 5 h.

Question: What about the “AUC(0-t)” value ([2]; mean value of 3 rats) of the same molecule?
Answer: Its value is 13119 ng·h/mL.

Question: And the “results (inhibition efficacy)” value [3]?
Answer: Its value is “effective”.

Question: For CNC(=O)c1cc(Oc2ccc(NC(=O)Nc3ccc(Cl)c(C(F)(F)F)c3)cc2)ccn1 [CM4306, 4-(4-(3-(4-chloro-3-(trifluoromethyl)phenyl]ureido)-phenoxy)-(N-methyl)picolinamide], which “AUC(0-t)” value ([2]; individual rat, 4 mg/kg) is on record?
Answer: Its value is 23431 ng·h/mL and 40239 ng·h/mL and 24571 ng·h/mL.

Question: And the “AUC(0-∞)” value ([2]; individual rat, 4 mg/kg)?
Answer: The value was 41544 ng·h/mL and 25008 ng·h/mL.

Question: And the Cmax ([2]; individual rat, 4 mg/kg)?
Answer: Its Cmax is 642 ng/mL and 1568 ng/mL and 651 ng/mL.

Question: What about the “MRT(0-∞)” value ([2]; individual rat, 4 mg/kg) of the same molecule?
Answer: The value was 23.2 h and 23.9 h.

Question: And the Tmax ([2]; individual rat, 4 mg/kg)?
Answer: The Tmax was 8.0 h and 2.0 h.

Question: What about the AUC(0-inf) [2, 5] of the same molecule?
Answer: The AUC(0-inf) was 24600 ng·h/mL.

Question: What about the half-life [2, 5] of the same molecule?
Answer: Its half-life is 14.8 h.

Question: And the MRT inf [2, 5]?
Answer: The MRT inf was 28.2 h.

Question: What about the AUC(0-inf) [2, 6] of the same molecule?
Answer: Its AUC(0-inf) is 30400 ng·h/mL.

Question: And the Cmax [2, 7]?
Answer: The Cmax was 954 ng/mL.

Question: And the MRT inf [2, 6]?
Answer: Its MRT inf is 25.1 h.

Question: And the Tmax [2, 8]?
Answer: Its Tmax is 6 h.

Question: What about the “AUC(0-t)” value ([2]; mean value of 3 rats) of the same molecule?
Answer: The value was 29414 ng·h/mL.

Question: What about the “results (inhibition efficacy)” value [3] of the same molecule?
Answer: The value was “effective”.

Question: Which “% Inhibition ratio for inhibiting tyrosine kinase at 10 μM, c-Kit mean value” ([3]; 10 μM compound, ATP 5 μM, mean of duplicate experiments) does the source give for CCN(CC)CCNC(=O)c1c(C)[nH]c(/C=C2\C(=O)Nc3ccc(F)cc32)c1C [Su11248] here?
Answer: The value was 90.2%.

Question: And the “results (inhibition efficacy)” value [3]?
Answer: Its value is “effective”.

Question: And the “% Inhibition ratio for inhibiting tyrosine kinase at 10 μM, PDGFR-β mean value” [4]?
Answer: The value was 93.9%.
